Values quoted from earlier work in US20040082013A1, “Methods for screening for substances which inhibit fp prostanoid receptor interaction with a compound having pgf2alpha activity and methods of treating cancer” (priority 2003, published 2004).

What was measured:
[1] = tested on: eyelashes and adjacent hair; conditions: some patients receiving latanoprost for glaucoma; treated eye, not untreated eye
[2] = tested on: skin carcinogenesis; conditions: animal models of skin carcinogenesis

Compound | hair growth side effect [1] | effect on anti-tumor promoting activity of indomethacin [2] | effect on tumor promoting activity of phorbol esters [2]
CC(C)OC(=O)CCC/C=C\C[C@@H]1[C@@H](CC[C@@H](O)CCc2ccccc2)[C@H](O)C[C@@H]1O [latanoprost] | hypertrichosis of the eyelashes and adjacent hair in the treated eye | – | –
prostaglandin F2α [PGF2α] | – | reversed the anti-tumor promoting activity of indomethacin | increased the tumor promoting activity of phorbol esters
